Read-outs that look alike come from different tables or passages of the source.
Experiments:
[1] = system: chloroquine-resistant P. falciparum strain K; assay: Inhibition of chloroquine-resistant P. falciparum strain K (direct anti-malarial activity); type: cell-based; details: All PUFA at 11μm
[2] = system: peripheral blood mononuclear cells; assay: PHA-induced proliferation of peripheral blood mononuclear cells (thymidine incorporation); type: cell-based; details: Homo sapiens, PBMC, read-out: % INHIBITION OF PROLIFERATION
Experimental: Mononuclear cells were separated from peripheral blood of normal human donors as described by Ferrante and Thong (1978 . . . ). The mononuclear cells were resuspended in RPMI-1640 containing 20% human AB serum and placed into 96 well microtrays (50 μl per well, cell density 4×10^6 cells/ml). Fatty acid was then added in 50 μl and pre-incubated with the cells for 30 min at 37° C. in 5% CO2. Mitogen (PHA, ConA, PWM. Staph, Aureus) was then added in 100 μl and the cells incubated for 66 hours at 37° C. in 5% CO2 before the addition of tritiated thymnidine (1 μCi/well). After a total of 72 h in culture, the cells were harvested and proliferation (thymidine incorporation) and supernatants assayed for the presence of cytokines.

| Compound | % INHIBITION of P. falciparum [1] [%] | inhibition at 20 µM [2] [%] | inhibition at 20 µM ([2]; All PUFA at 20μM, PHA-induced) [%] |
| --- | --- | --- | --- |
| CCN(CC)CCCC(C)Nc1ccnc2cc(Cl)ccc12 (centres unmarked) [Chloroquine, reference compound] | 20.1 | – | – |
| CCCCC/C=C\C/C=C\C/C=C\C/C=C\CCCC(=O)N[C@@H](CC(=O)O)C(=O)O [arachidonic acid-aspartic acid-OH, Arachidonic-aspartic acid-OH] | – | 39.7 | – |
| CCCCC/C=C\C/C=C\C/C=C\C/C=C\CCCC(=O)NCC(=O)O [arachidonic acid-glycine-OH, Arachidonic Acid-Glycine-OH] | 84.2 | 8 | – |
| CC/C=C\C/C=C\C/C=C\C/C=C\C/C=C\C/C=C\CCC(=O)N[C@@H](CC(=O)O)C(=O)O [docosahexaenoic acid-aspartic acid-OH, Docosahexaenoic Acid-Aspartic Acid-OH] | – | – | 21.1 |
| CC/C=C\C/C=C\C/C=C\C/C=C\C/C=C\C/C=C\CCC(=O)NCC(=O)O [docosahexaenoic acid-glycine-OH, Docosahexaenoic acid-glycine-OH] | 84.9 | – | 16.6 |
| CC/C=C\C/C=C\C/C=C\C/C=C\C/C=C\CCCC(=O)N[C@@H](CC(=O)O)C(=O)O [eicosapentaenoic acid-aspartic acid-OH, Eicosapentaenoic acid-aspartic acid-OH] | – | – | 20.7 |
| CC/C=C\C/C=C\C/C=C\C/C=C\C/C=C\CCCC(=O)NCC(=O)O [eicosapentaenoic acid-glycine-OH, Eicosapentaenoic acid-glycine-OH] | – | – | 5.4 |
| CC/C=C\C/C=C\C/C=C\CCCCCCCC(=O)N[C@@H](CC(=O)O)C(=O)O [α-linolenic acid-aspartic acid-OH, Linolenic Acid-Aspartic Acid-OH] | – | – | 15.4 |
| CC/C=C\C/C=C\C/C=C\CCCCCCCC(=O)NCC(=O)O [α-linolenic acid-glycine-OH, Linolenic Acid-Glycine-OH] | 81.5 | – | 29 |
| CCCCC/C=C\C/C=C\C/C=C\CCCCC(=O)N[C@@H](CC(=O)O)C(=O)O [γ-linolenic acid-aspartic acid-OH, Gamma Linolenic-Aspartic Acid-OH] | – | – | 7.3 |
| CCCCC/C=C\C/C=C\C/C=C\CCCCC(=O)NCC(=O)O [γ-linolenic acid-glycine-OH, Gamma Linolenic Acid-Glycine-OH] | – | – | 15.6 |

— US5998476A, “Synthetic polyunsaturated fatty acid analogues” (Peptide Technology Limited, priority 1994, dated 1999)
